Experimental data published in US11440913B2, “Aminoimidazopyridazines as kinase inhibitors” (BRISTOL-MYERS SQUIBB COMPANY, priority 2017, dated 2022).
Counter-ions that a name gives are not always drawn. Like-named read-outs stand apart in the source and are kept apart here.

Tests used:
[1] = molecular target: His-GST-TVMV-hRIPK1(1-324) (Homo sapiens (Human), UniProt Q13546); experiment: RIPK1 HTRF Binding Assay; conditions: HTRF binding, 1 h at rt, read-out: RIPK1 (IC50)
In short: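 HTRF probe-displacement binding: 1 nM His-GST-TVMV-hRIPK1(1-324) (baculovirus construct), 90.6 nM probe, 0.2 nM anti-GST-Tb in 20 mM HEPES, 10 mM MgCl2, 0.015% Brij-35, 4 mM DTT, 0.05 mg/mL BSA. Incubated 1 h at rt; FRET 520/495 nm ratio, inhibition relative to DMSO-only wells.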

[2] = tested on: MLKL phosphorylation in HT29-L23 human colorectal adenocarcinoma cells; experiment: MLKL Phosphorylation High-Content Assay; format: cell-based; conditions: 6 h, necroptosis induced with TNFα, SMAC mimetic and Z-VAD, read-out: pMLKL (IC50)
In short: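 HT29-L23 cells pretreated 30 min at 37 °C with compound (6.25 to 0.106 μM final), then necroptosis induced with TNFα 35 ng/mL, SMAC mimetic 700 nM and Z-VAD 140 nM for 6 h. Fixed cells immunostained for MLKL pS358 and imaged; IC50 and Ymax from 4-parameter logistic fit.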

Sequence of His-GST-TVMV-hRIPK1(1-324) (Q13546 1-324): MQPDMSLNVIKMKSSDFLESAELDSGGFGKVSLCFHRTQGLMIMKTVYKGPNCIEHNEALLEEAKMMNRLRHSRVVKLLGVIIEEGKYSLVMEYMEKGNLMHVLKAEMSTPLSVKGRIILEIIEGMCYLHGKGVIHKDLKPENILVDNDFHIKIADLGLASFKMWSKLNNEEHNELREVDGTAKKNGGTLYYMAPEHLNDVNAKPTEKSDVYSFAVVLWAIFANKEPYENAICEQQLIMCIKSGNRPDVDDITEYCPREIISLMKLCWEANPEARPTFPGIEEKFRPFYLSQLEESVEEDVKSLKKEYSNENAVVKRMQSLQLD

Row | Compound | IC50 [1] | IC50 ([2]; Homo sapiens) | IC50 ([1]; TFA) | IC50 ([2]; TFA)
1 | [2H]C([2H])([2H])Oc1nc(C)c(-c2ccc3nc(NC(C)=O)cn3n2)cc1C(=O)NCc1cc(F)cc(F)c1OC1CCOC(C)C1 (stereo not shown) [Example 172, N-({3,5-difluoro-2-[(2-methyloxan-4-yl)oxy]phenyl}methyl)-5-{2-acetamidoimidazo[1,2-b]pyridazin-6-yl}-2-(deutero)methoxy-6-methylpyridine-3-carboxamide] | 15 nM | 16 nM | – | –
2 | CC(=O)Nc1cn2nc(-c3cncc(C(=O)NCCC(C)c4ccccc4)c3)ccc2n1 (stereo not shown) [Example 238, 5-{2-acetamidoimidazo[1,2-b]pyridazin-6-yl}-N-(3-phenylbutyl) pyridine-3-carboxamide] | 41 nM | 356 nM | – | –
3 | CNCC(=O)Nc1cn2nc(-c3cnc(C)c(C(=O)N[C@H](C)c4cc(OC(F)(F)F)ccc4F)c3)ccc2n1 [Example 340, N-[(1R)-1-[2-fluoro-5-(trifluoromethoxy)-phenyl]ethyl]-2-methyl-5-{2-[2-(methylamino)-acetamido]imidazo [1,2-b]pyridazin-6-yl}pyridine-3-carboxamide] | 67 nM | 258 nM | – | –
4 | COc1ncc(-c2ccc3nc(NC(C)=O)cn3n2)cc1C(=O)NC(C)c1c(F)cccc1OCC1CC1 (stereo not shown) [Example 122, N-{1-[2-(cyclopropylmethoxy)-6-fluorophenyl]ethyl}-5-{2-acetamidoimidazo[1,2-b]pyridazin-6-yl}-2-methoxypyridine-3-carboxamide, TFA] | – | – | 5 nM | 15 nM
5 | COc1nc(C)c(-c2ccc3nc(NC(C)=O)cn3n2)cc1C(=O)NCc1cccc(OC(F)(F)F)c1 [Example 319, 5-{2-acetamidoimidazo[1,2-b]pyridazin-6-yl}-2-methoxy-6-methyl-N-{[3-(trifluoromethoxy)phenyl]methyl}pyridine-3-carboxamide] | 15 nM | 29 nM | – | –
6 | COc1ncc(-c2ccc3nc(NC(C)=O)cn3n2)cc1C(=O)NCc1c(F)cccc1OC1CCCC1 [Example 156, N-{[2-(cyclopentyloxy)-6-fluorophenyl]methyl}-5-{2-acetamidoimidazo[1,2-b]pyridazin-6-yl}-2-methoxypyridine-3-carboxamide] | 2 nM | 3 nM | – | –
7 | COc1ncc(-c2ccc3nc(NC(=O)C(C)C)cn3n2)cc1C(=O)NCc1ccccc1OC(F)(F)F [Example 263, 2-methoxy-5-[2-(2-methylpropanamido)imidazo[1,2-b]pyridazin-6-yl]-N-{[2-(trifluoromethoxy)phenyl]-methyl}pyridine-3-carboxamide] | 107 nM | 38 nM | – | –
8 | CC(=O)Nc1cn2nc(-c3cc(F)c(F)c(C(=O)NCc4cc(OC(F)(F)F)ccc4F)c3)ccc2n1 [Example 366, 5-{2-acetamidoimidazo [1,2-b]pyridazin-6-yl}-2,3-difluoro-N-{[2-fluoro-5-(trifluoromethoxy)phenyl]methyl} benzamide] | 13 nM | 123 nM | – | –
9 | CC(=O)Nc1cn2nc(-c3ccc(C)c(C(=O)NCC(O)COc4ccccc4)c3)ccc2n1 (stereo not shown) [Example 400, 5-{2-acetamidoimidazo [1,2-b]pyridazin-6-yl}-N-(2-hydroxy-3-phenoxypropyl)-2-methylbenzamide] | 11 nM | 11 nM | – | –
10 | CC(=O)Nc1cn2nc(-c3cnc(Cl)c(C(=O)NC(C)c4ccccc4OC(F)(F)F)c3)ccc2n1 (stereo not shown) [Example 268, 2-chloro-5-{2-acetamidoimidazo[1,2-b]pyridazin-6-yl}-N-{1-[2-(trifluoromethoxy)phenyl]ethyl}pyridine-3-carboxamide] | 46 nM | 73 nM | – | –
11 | COc1ncc(-c2ccc3nc(NC(C)=O)cn3n2)cc1C(=O)NCC[C@H](O)c1ccc(Cl)cc1 [Example 119, N-[(3S)-3-(4-chlorophenyl)-3-hydroxypropyl]-5-{2-acetamidoimidazo[1,2-b]pyridazin-6-yl}-2-methoxypyridine-3-carboxamide] | 116 nM | 94 nM | – | –
12 | Cc1ncc(-c2ccc3nc(NC(=O)CN4CC(F)(F)C4)cn3n2)cc1C(=O)NCC[C@@H](O)c1ccc(Cl)cc1 [Example 344, N-[(3R)-3-(4-chlorophenyl)-3-hydroxypropyl]-5-{2-[2-(3,3-difluoroazetidin-1-yl)acetamido]imidazo[1,2-b]pyridazin-6-yl}-2-methylpyridine-3-carboxamide] | 266 nM | 37 nM | – | –
13 | [2H]C([2H])(NC(=O)c1cc(-c2ccc3nc(NC(C)=O)cn3n2)c(C)nc1C)c1cc(OC(F)(F)F)ccc1F [Example 76, 5-{2-acetamidoimidazo[1,2-b]pyridazin-6-yl}-N-{[2-fluoro-5-(trifluorometh-oxy)phenyl](deutero)methyl}-2,6-dimethylpyridine-3-carboxamide] | 3 nM | 8 nM | – | –
14 | COc1ncc(-c2ccc3nc(NC(C)=O)cn3n2)cc1C(=O)NCc1ccccc1OCC1CC1 [Example 22, N-{[2-(cyclopropylmethoxy)phenyl]methyl}-5-{2-acetamidoimidazo[1,2-b]pyridazin-6-yl}-2-methoxypyridine-3-carboxamide] | 4 nM | 26 nM | – | –
15 | COc1ncc(-c2ccc3nc(NC(C)=O)cn3n2)cc1C(=O)NCc1c(F)ccc(F)c1OCC1CC1 [Example 127, N-{[2-(cyclopropylmethoxy)-3,6-difluorophenyl]methyl}-5-{2-acetamidoimidazo[1,2-b]pyridazin-6-yl}-2-methoxypyridine-3-carboxamide] | 4 nM | 33 nM | – | –
16 | CC(=O)Nc1cn2nc(-c3ccc(C)c(C(=O)NCc4ccc(F)cc4C(=O)N4CCC(F)(F)C4)c3)ccc2n1 [Example 405, N-{[2-(3,3-difluoropyrrolidine-1-carbonyl)-4-fluorophenyl]methyl}-5-{2-acetamidoimidazo [1,2-b]pyridazin-6-yl}-2-methylbenzamide] | 14 nM | 99 nM | – | –
17 | COc1ncc(-c2ccc3nc(NC(C)=O)cn3n2)cc1C(=O)NCc1c(F)ccc(F)c1OC [Example 141, N-[(3,6-difluoro-2-methoxyphenyl)methyl]-5-{2-acetamidoimidazo[1,2-b]pyridazin-6-yl}-2-methoxypyridine-3-carboxamide] | 97 nM | 256 nM | – | –
18 | COc1ncc(-c2ccc3nc(NC(C)=O)cn3n2)cc1C(=O)NCc1ccccc1OCC(C)C [Example 117, 5-{2-acetamidoimidazo[1,2-b]pyridazin-6-yl}-2-methoxy-N-{[2-(2-methyl-propoxy)phenyl]methyl}pyridine-3-carboxamide] | 6 nM | 19 nM | – | –
19 | CC(=O)Nc1cn2nc(-c3cc(C(=O)NCc4cccc(F)c4OCC4CC4)cnc3C)ccc2n1 [Example 232, N-{[2-(cyclopropylmethoxy)-3-fluorophenyl]methyl}-5-{2-acetamidoimidazo[1,2-b]pyridazin-6-yl}-6-methylpyridine-3-carboxamide] | 4 nM | 4 nM | – | –
20 | CC(=O)Nc1cn2nc(-c3cncc(C(=O)NCc4ccccc4OCC4CC4)c3)ccc2n1 [Example 239, N-{[2-(cyclopropylmethoxy)phenyl]methyl}-5-{2-acetamidoimidazo [1,2-b]pyridazin-6-yl}pyridine-3-carboxamide] | 13 nM | 158 nM | – | –
21 | [2H]C([2H])([2H])Oc1ncc(-c2ccc3nc(NC(C)=O)cn3n2)cc1C(=O)NCc1c(F)cccc1OCC(F)(F)F [Example 42, 5-{2-acetamidoimidazo[1,2-b]pyridazin-6-yl}-N-{[2-fluoro-6-(2,2,2-trifluoroethoxy)phenyl]methyl}-2-(D3)methoxypyridine-3-carboxamide] | 11 nM | 13 nM | – | –
22 | CC(=O)Nc1cn2nc(-c3cnc(C)c(C(=O)NCc4c(F)cccc4OCC4CCC4)c3)ccc2n1 [Example 219, N-{[2-(cyclobutylmethoxy)-6-fluorophenyl]methyl}-5-{2-acetamidoimidazo[1,2-b]pyridazin-6-yl}-2-methylpyridine-3-carboxamide] | 3 nM | 1 nM | – | –
23 | CNCC(=O)Nc1cn2nc(-c3cc(F)c(C)c(C(=O)NCC[C@H](O)c4ccc(Cl)cc4)c3)ccc2n1 [Example 363, N-[(3S)-3-(4-chlorophenyl)-3-hydroxypropyl]-3-fluoro-2-methyl-5-{2-[2-(methylamino)acetamido]imidazo[1,2-b]pyridazin-6-yl}benzamide] | 65 nM | 47 nM | – | –
24 | [2H]C([2H])([2H])Oc1ncc(-c2ccc3nc(NC(C)=O)cn3n2)cc1C(=O)NCc1cc(F)cc(F)c1O[C@@H]1CCOC1 [Example 44, N-({3,5-difluoro-2-[(3R)-oxolan-3-yloxy]phenyl}methyl)-5-{2-acetamidoimidazo[1,2-b]pyridazin-6-yl}-2-(D3)methoxypyridine-3-carboxamide] | 17 nM | 71 nM | – | –
25 | CC(=O)Nc1cn2nc(-c3cnc(C)c(C(=O)Nc4cnn(C(C)c5ccc(F)cc5)c4)c3)ccc2n1 (stereo not shown) [Example 348, 5-{2-acetamidoimidazo[1,2-b]pyridazin-6-yl}-N-{1-[1-(4-fluorophenyl)ethyl]-1H-pyrazol-4-yl}-2-methylpyridine-3-carboxamide] | 2 nM | 27 nM | – | –
26 | CC(=O)Nc1cn2nc(-c3cnc(C)c(C(=O)NCc4c(F)cccc4OC4CCCC4)c3)ccc2n1 [Example 223, N-{[2-(cyclopentyloxy)-6-fluorophenyl]methyl}-5-{2-acetamidoimidazo[1,2-b]pyridazin-6-yl}-2-methylpyridine-3-carboxamide] | 4 nM | 3 nM | – | –
